Test results as given in patent US20040137085A1, “Treatment of HIV infection with humic acid” (priority 1993, published 2004).

Tests used:
[1] = test system: human PBL; test: Proliferation of human PBL; format: cell-based; set-up: unit not given here
Excerpt: (§1) The effect on IL-2 production by AVC was not due to a direct proliferative effect on PBL in culture (Table IV) nor did it have a direct effect on IL-2 production by Jurkat or LBRM-33 T lymphoma cells (Table V).

[2] = test system: Jurkat cells; test: Production of IL-2 by Jurkat T lymphoma cells; format: cell-based, human
Protocol: (§2) Typically, peripheral blood lymphocytes (PBL) from normal donors are incubated (2×10^6 cells/ml) in RPMI-1640 medium supplemented with 4 mM glutamine, 0.1 mM nonessential amino acids, 1 mM sodium pyruvate, 10 mM HEPES and 10% FCS and containing either Con A (5 μg/ml) or PHA (10 μg/ml) as the mitogen. AVC was added at the initiation of the culture at the dose of 12 μg/ml. The cultures were then incubated in a 5% CO2 atmosphere. Culture supernatants were collected on day 2, 3 and 4 and tested for the content (Units/ml) of IL-2 using a biological assay consisting in measuring the proliferative response of murine CTLL-2 T cells whose growth in culture is strictly dependent on the presence of IL-2 in the medium. The proliferative response (^3H-Thymidine incorporation) of CTLL-2 cells was plotted on a reference curve constructed with a standard amount of IL-2 and the experimental values calculated accordingly.
as §1

[3] = test system: LBRM-33 Cells; test: Production of IL-2 by LBRM-33 T lymphoma cells; format: cell-based
Protocol: as §2, §1

## concanavalin A [Con A]
[1]; Experiment 1, 24 Hours
  Proliferation of human PBL: 3,772
[1]; Experiment 1, 48 Hours
  Proliferation of human PBL: 37,839
[1]; Experiment 1, 72 Hours
  Proliferation of human PBL: 42,357
[1]; Experiment 2, 24 Hours
  Proliferation of human PBL: 182
[1]; Experiment 2, 48 Hours
  Proliferation of human PBL: 23,767
[2]; 24 Hours
  Production of IL-2: 3,815
[2]; 48 Hours
  Production of IL-2: 10,061
[3]; 24 Hours
  Production of IL-2: 28,774
[3]; 48 Hours
  Production of IL-2: 28,880
